Results published in PubChem BioAssay AID1963840 (Molecular Pharmacology Branch, DTP, NCI, 2024).

System: 695427-040-R-J1-PDC complex spheroid viability
Assay: Anticancer human tumor 695427-040-R-J1-PDC patient-derived colon adenocarcinoma cell line growth inhibition [POLQ]
Settings: for IC50: curve of first compound; for viability, T/C: stronger effect = lower value
Protocol: Multicellular complex tumor spheroid response to Polymerase (POL) inhibitors (novobiocin, ART-558, RP6685) in combination with a variety of drugs and investigational agents in selected tumor cell lines
The POL inhibitors (novobiocin, ART-558, and RP6685) were evaluated both individually and in combination with standard of care and investigational anticancer small molecules within a complex spheroid model of solid tumors. . Complex spheroids include a stromal component modeled by human endothelial cells (HUVEC) and fibroblasts modeled by human mesenchymal stem cells (MSCs). The concentration ranges selected for each drug and investigational agent were based upon clinically achievable concentrations if the clinical Cmax of the agent was known.
Compounds. The drugs and investigational agents: novobiocin (NSC847541), ART-558 (NSC835418), RP-6685 (NSC848927), peposertib (NSC802822), ceralasertib (NSC780249), elimusertib (NSC800525), camonsertib (NSC841442), AZD-1390 (NSC803789), olaparib (NSC753686), talazoparib (NSC767125), rucaparib (NSC756644), sotorasib (NSC818433), MRTX-1133 (NSC836407), SN-38 (NSC673596), topotecan (NSC609699), epotoside (NSC141540), doxorubicin (NSC123127), gemcitabine (NSC613327), 5-fluorouracil (NSC19893), paclitaxel (NSC125973), vemurafenib (NSC761431), MSA-2 (NSC828583), SN-011 (NSC837082), adavosertib (NSC754352), prexasertib (NSC758257), carboplatin (NSC241240) and oxaliplatin (NSC266046), were obtained from the National Cancer Institute (NCI) Developmental Therapeutics Program Chemical Repository (21). The FDA-approved anticancer drug set is available from the Developmental Therapeutics Program at https://dtp.cancer.gov/organization/dscb/obtaining/. […] The stock solutions were prepared in dimethyl sulfoxide (DMSO, Sigma-Aldrich, St. Louis, MO, cat. D2650), except for the platinum compounds which were prepared in saline (Quality Biological, Gaithersburg, MD, cat. 114-055-101), at 800-fold the tested concentration and stored at -70 degrees C prior to their use. All drugs and investigational agents were tested over a range starting from a high concentration at or near the clinical Cmax and decreasing in half-log increments. If the clinical Cmax for an agent had not been determined, the highest concentration tested was 10 microM, except for SN-38, which was tested at a high concentration of 1 microM.
Cell Culture. All cells were maintained in an incubator at 37 degrees C and 5% CO2 with 95% humidity. The PDC lines were cultured according to standard operating procedures established by the NCI PDMR (https://pdmr.cancer.gov). Table 3 of the manuscript, lists the cell lines along with the number of the three cell types plated to form the mct-spheroids and media for tumor cell growth. After thawing, all PDC lines, except 997537-175-T-J1-PDC and 415267-285-R-J2-PDC, were cultured in Matrigel-coated flasks prepared with a working solution of 1X Ham's F-12 nutrient mix, without supplementation (Thermo Fisher Scientific, cat. 11765054), 100 U/mL penicillin-streptomycin (Thermo Fisher Scientific, cat. 15140122), and 2.5% Matrigel (Corning Inc., Corning, NY, cat. 354248) for the first three passages. The two PDC lines 997537-175-T-J1-PDC and 415267-285-R-J2-PDC were cultured on uncoated flasks. The 857933-349-R-J2-PDC line was cultured in 6C/Colon 1B media containing advanced DMEM/F-12 (Thermo Fisher Scientific, cat. 12634028), 10 mM HEPES (Thermo Fisher Scientific, cat. 15630080), 1X GlutaMAX supplement (Thermo Fisher Scientific, cat. 35050061), 0.1 mg/mL primocin (InvivoGen, San Diego, CA, cat. ant-pm-2), 10% defined fetal bovine serum, heat inactivated (HyClone Laboratories Inc., Logan, UT, cat. SH30070.03HI), 50% L-WRN conditioned media (ATCC, cat. CRL-3276), 1.25 mM N-Acetyl-L-cysteine (Sigma-Aldrich, cat. A9165), 10 mM nicotinamide (Sigma-Aldrich, cat. N0636), 1X B-27 supplement (Thermo Fisher Scientific, cat. 17504044), 1X N-2 supplement (Thermo Fisher Scientific, cat. […]

[1] = second compound 0.0316 µM, first compound 0.0316 µM
[2] = second compound 0.0316 µM, first compound 0.1 µM
[3] = second compound 0.0316 µM, first compound 0.316 µM
[4] = second compound 0.0316 µM, first compound 1 µM
[5] = second compound 0.1 µM, first compound 0.0316 µM
[6] = second compound 0.1 µM, first compound 0.1 µM
[7] = second compound 0.1 µM, first compound 0.316 µM
[8] = second compound 0.1 µM, first compound 1 µM
[9] = second compound 0.316 µM, first compound 0.0316 µM
[10] = second compound 0.316 µM, first compound 0.1 µM
[11] = second compound 0.316 µM, first compound 0.316 µM
[12] = second compound 0.316 µM, first compound 1 µM
[13] = second compound 1 µM, first compound 0.0316 µM
[14] = second compound 1 µM, first compound 0.1 µM
[15] = second compound 1 µM, first compound 0.316 µM
[16] = second compound 1 µM, first compound 1 µM
[17] = second compound 3.16 µM, first compound 0.0316 µM
[18] = second compound 3.16 µM, first compound 0.1 µM
[19] = second compound 3.16 µM, first compound 0.316 µM
[20] = second compound 3.16 µM, first compound 1 µM
[21] = second compound 10 µM, first compound 0.0316 µM
[22] = second compound 10 µM, first compound 0.1 µM
[23] = second compound 10 µM, first compound 0.316 µM
[24] = second compound 10 µM, first compound 1 µM
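Further: spheroids exposed to compounds for seven days.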
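Wherever viability, T/C is given: 100% = DMSO vehicle control viability.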

COc1cccc(OCCCN)c1-c1cc(Nc2cnc(C#N)cn2)n[nH]1 + COC1C(OC(N)=O)C(O)C(Oc2ccc3c(O)c(NC(=O)c4ccc(O)c(CC=C(C)C)c4)c(=O)oc3c2C)OC1(C)C
IC50 (second compound 0.0316 µM): 386 nM
IC50 (second compound 0.1 µM): 535 nM
IC50 (second compound 0.316 µM): 460 nM
IC50 (second compound 1 µM): 391 nM
IC50 (second compound 3.16 µM): 449 nM
IC50 (second compound 10 µM): 465 nM
viability, T/C (second compound 0.0316 µM, first compound 0.00316 µM): 103%
viability, T/C (second compound 0.0316 µM, first compound 0.01 µM): 94.2%
viability, T/C [1]: 81.1%
viability, T/C [2]: 70.2%
viability, T/C [3]: 50.3%
viability, T/C [4]: 39.7%
viability, T/C (second compound 0.1 µM, first compound 0.00316 µM): 109%
viability, T/C (second compound 0.1 µM, first compound 0.01 µM): 84.2%
viability, T/C [5]: 81%
viability, T/C [6]: 69.7%
viability, T/C [7]: 56%
viability, T/C [8]: 42.2%
viability, T/C (second compound 0.316 µM, first compound 0.00316 µM): 101%
viability, T/C (second compound 0.316 µM, first compound 0.01 µM): 93%
viability, T/C [9]: 85%
viability, T/C [10]: 73.1%
viability, T/C [11]: 54%
viability, T/C [12]: 39.2%
viability, T/C (second compound 1 µM, first compound 0.00316 µM): 102%
viability, T/C (second compound 1 µM, first compound 0.01 µM): 93.7%
viability, T/C [13]: 83.7%
viability, T/C [14]: 66.3%
viability, T/C [15]: 53.9%
viability, T/C [16]: 38.1%
viability, T/C (second compound 3.16 µM, first compound 0.00316 µM): 107%
viability, T/C (second compound 3.16 µM, first compound 0.01 µM): 95.1%
viability, T/C [17]: 86.3%
viability, T/C [18]: 67.2%
viability, T/C [19]: 56.3%
viability, T/C [20]: 38.7%
viability, T/C (second compound 10 µM, first compound 0.00316 µM): 100%
viability, T/C (second compound 10 µM, first compound 0.01 µM): 84.9%
viability, T/C [21]: 81.1%
viability, T/C [22]: 68.9%
viability, T/C [23]: 55.2%
viability, T/C [24]: 39.8%

O=C(c1cc(Cc2n[nH]c(=O)c3ccccc23)ccc1F)N1CCN(C(=O)C2CC2)CC1 + COC1C(OC(N)=O)C(O)C(Oc2ccc3c(O)c(NC(=O)c4ccc(O)c(CC=C(C)C)c4)c(=O)oc3c2C)OC1(C)C
IC50 (second compound 0.0316 µM): > 10000 nM
IC50 (second compound 0.1 µM): > 10000 nM
IC50 (second compound 0.316 µM): > 10000 nM
IC50 (second compound 1 µM): > 10000 nM
IC50 (second compound 3.16 µM): > 10000 nM
IC50 (second compound 10 µM): > 10000 nM
viability, T/C [1]: 115%
viability, T/C [2]: 106%
viability, T/C [3]: 105%
viability, T/C [4]: 105%
viability, T/C (second compound 0.0316 µM, first compound 3.16 µM): 110%
viability, T/C (second compound 0.0316 µM, first compound 10 µM): 97.9%
viability, T/C [5]: 108%
viability, T/C [6]: 108%
viability, T/C [7]: 108%
viability, T/C [8]: 105%
viability, T/C (second compound 0.1 µM, first compound 3.16 µM): 111%
viability, T/C (second compound 0.1 µM, first compound 10 µM): 96.3%
viability, T/C [9]: 110%
viability, T/C [10]: 96.9%
viability, T/C [11]: 105%
viability, T/C [12]: 104%
viability, T/C (second compound 0.316 µM, first compound 3.16 µM): 114%
viability, T/C (second compound 0.316 µM, first compound 10 µM): 108%
viability, T/C [13]: 110%
viability, T/C [14]: 105%
viability, T/C [15]: 104%
viability, T/C [16]: 106%
viability, T/C (second compound 1 µM, first compound 3.16 µM): 117%
viability, T/C (second compound 1 µM, first compound 10 µM): 101%
viability, T/C [17]: 97.1%
viability, T/C [18]: 96.7%
viability, T/C [19]: 94.3%
viability, T/C [20]: 108%
viability, T/C (second compound 3.16 µM, first compound 3.16 µM): 117%
viability, T/C (second compound 3.16 µM, first compound 10 µM): 112%
viability, T/C [21]: 103%
viability, T/C [22]: 103%
viability, T/C [23]: 115%
viability, T/C [24]: 107%
viability, T/C (second compound 10 µM, first compound 3.16 µM): 114%
viability, T/C (second compound 10 µM, first compound 10 µM): 97%
